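Method: 48-hour compound exposure of cells in 96-well plates, five concentrations, linear interpolation of endpoints. At the GI50, growth is halved.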 The source made the active and inactive calls. Cut-off read from the data, not from the text of the source: active = GI50 up to about 1.1 µM and inactive = higher.
How the values were obtained:
Assay in all cases: NCI anticancer screen, dose series, 48 h
[1] = tested on: CAKI-1
[2] = tested on: COLO 205
[3] = tested on: EKVX
[4] = tested on: HOP-92
[5] = tested on: LOX IMVI
[6] = tested on: MCF7
[7] = tested on: MOLT-4
[8] = tested on: Malme-3M
[9] = tested on: NCI-H23
[10] = tested on: NCI/ADR-RES
[11] = tested on: OVCAR-4
[12] = tested on: SF-295
[13] = tested on: SF-539
[14] = tested on: SK-OV-3
[15] = tested on: SW-620
[16] = tested on: T47D
[17] = tested on: TK-10
[18] = tested on: U-251
[19] = tested on: UACC-62
[20] = tested on: UO-31

Row | Compound | GI50 [1] | GI50 [2] | GI50 [3] | GI50 [4] | GI50 [5] | GI50 [6] | GI50 [7] | GI50 [8] | GI50 [9] | GI50 [10] | GI50 [11] | GI50 [12] | GI50 [13] | GI50 [14] | GI50 [15] | GI50 [16] | GI50 [17] | GI50 [18] | GI50 [19] | GI50 [20]
1 | COC(=O)/C=C\C(C#N)(C#N)/N=C/c1ccc(OC)cc1 | 2.08 µM (inactive) | 1.65 µM (inactive) | 16.6 µM (inactive) | 1.92 µM (inactive) | 3.12 µM (inactive) | 2.73 µM (inactive) | 1.06 µM (active) | 1.73 µM (inactive) | 8.95 µM (inactive) | 2.73 µM (inactive) | 1.92 µM (inactive) | 25.1 µM (inactive) | 4.99 µM (inactive) | 17.3 µM (inactive) | 1.99 µM (inactive) | 1.54 µM (inactive) | 2.63 µM (inactive) | 17.9 µM (inactive) | 15.9 µM (inactive) | 2.25 µM (inactive)
2 | O=C(CC(=O)N(C(=O)c1ccccc1)c1ccc(Cl)cc1)N/N=C\c1ccccc1O | > 100 µM (inactive) | 85.5 µM (inactive) | 37 µM (inactive) | 24.6 µM (inactive) | 58.1 µM (inactive) | 60.7 µM (inactive) | 2.61 µM (inactive) | > 100 µM (inactive) | 43.4 µM (inactive) | 50.6 µM (inactive) | > 100 µM (inactive) | 25.9 µM (inactive) | 36.1 µM (inactive) | 17.2 µM (inactive) | > 100 µM (inactive) | 49.7 µM (inactive) | 32.3 µM (inactive) | 48.2 µM (inactive) |  | 38.7 µM (inactive)
3 | CC1OC(OC2C(O[C@H]3CC[C@@H]4C(=CC[C@@H]5[C@@]4(C)C(=O)C[C@]4(C)[C@@H]([C@H](C)CC[C@@H](O)C(C)(C)O)CC[C@@]54C)C3(C)C)OC(CO)C(O)C2O)C(O)C(O)C1O (some centres undefined) | > 100 µM (inactive) | > 100 µM (inactive) | > 100 µM (inactive) | > 100 µM (inactive) | > 100 µM (inactive) | > 100 µM (inactive) | 37.2 µM (inactive) | > 100 µM (inactive) | > 100 µM (inactive) | > 100 µM (inactive) | > 100 µM (inactive) | > 100 µM (inactive) | > 100 µM (inactive) | > 100 µM (inactive) | 35.3 µM (inactive) | > 100 µM (inactive) | > 100 µM (inactive) | > 100 µM (inactive) | > 100 µM (inactive) | > 100 µM (inactive)
4 | COc1ccc(CCN2CCN(CCc3ccc(OC)cc3)CC2)cc1 | > 100 µM (inactive) | > 100 µM (inactive) | > 100 µM (inactive) | > 100 µM (inactive) | > 100 µM (inactive) | > 100 µM (inactive) | > 100 µM (inactive) | > 100 µM (inactive) | > 100 µM (inactive) | > 100 µM (inactive) | > 100 µM (inactive) | 46.6 µM (inactive) | > 100 µM (inactive) | > 100 µM (inactive) | > 100 µM (inactive) | > 100 µM (inactive) | > 100 µM (inactive) | > 100 µM (inactive) | > 100 µM (inactive) | > 100 µM (inactive)
5 | CCNc1ncnc2c1nnn2CC | > 100 µM (inactive) | > 100 µM (inactive) | > 100 µM (inactive) | 72.1 µM (inactive) | > 100 µM (inactive) | > 100 µM (inactive) | > 100 µM (inactive) | > 100 µM (inactive) | > 100 µM (inactive) | > 100 µM (inactive) | > 100 µM (inactive) | 79.6 µM (inactive) | > 100 µM (inactive) | > 100 µM (inactive) | > 100 µM (inactive) | > 100 µM (inactive) | > 100 µM (inactive) | > 100 µM (inactive) | > 100 µM (inactive) | > 100 µM (inactive)
6 | COc1cc2c(cc1OC)C(CCN)=NCC2 | 12.6 µM (inactive) | 14.3 µM (inactive) | 23.1 µM (inactive) | 6.82 µM (inactive) | 18.8 µM (inactive) | 18.2 µM (inactive) | 17.1 µM (inactive) | 18.8 µM (inactive) | 13.1 µM (inactive) | 27.4 µM (inactive) | 21.2 µM (inactive) | > 100 µM (inactive) | 6.75 µM (inactive) | > 76.7 µM (inactive) | 5 µM (inactive) | 8.32 µM (inactive) | 10.2 µM (inactive) | 16.4 µM (inactive) | 18.2 µM (inactive) | 1.77 µM (inactive)
7 | C=C1C(=O)C23CC1CCC2C12CO[C@H](O)[C@H]1C(C)(C)[C@H](OC(C)=O)C[C@H]2OC3=O (some centres undefined) | 15.2 µM (inactive) | 15.1 µM (inactive) | 15.1 µM (inactive) | 10.1 µM (inactive) | 18.1 µM (inactive) | 15.8 µM (inactive) | 15.2 µM (inactive) | 13.3 µM (inactive) | 27.7 µM (inactive) | 28.1 µM (inactive) | > 100 µM (inactive) | > 100 µM (inactive) | 20 µM (inactive) | > 100 µM (inactive) | 14.3 µM (inactive) | 19.7 µM (inactive) | 14.3 µM (inactive) | 64.1 µM (inactive) | 15 µM (inactive) | 22.9 µM (inactive)
